Laboratory results published in paper PMC11513920, “Building Metabolically Stable and Potent Anti-HIV Thioether-Lipid Analogues of Tenofovir Exalidex: A thorough Pharmacological Analysis” (Journal of Medicinal Chemistry, 2024).

Legend:
[1] = Human liver microsome stability; details: for half-life at 3 μM / half-life at 2.083 h, 3 µM / remaining at 2 h, 3 μM: human; for remaining at 2 h, 3 μM: HLM % remaining; for remaining at 2 h, 3 μM / HLM % remaining: relative percent remaining of prodrug at 120 min
Protocol: Human liver microsomes (HLMs, 20 mg/mL) and CD-1 mouse liver microsomes (MLMs, 20 mg/mL) were purchased from Xenotech. NADPH was purchased from Sigma-Aldrich and prepared in 10 mM stock solutions of distilled H2O (Invitrogen UltraPure). […] Test compounds and positive controls were initially dissolved in MeOH to make 10 mM stock solutions. Sample solutions were then further diluted in 70/30 MeOH/H2O to 500 μM. Next, the reactions were prepared by mixing human or mouse liver microsomes (55 μL) with potassium phosphate buffer (100 mM, 928 μL) in 1.5 mL Eppendorf tubes. The test compounds (6.6 μL of 500 μM solution) were subsequently added to the suspensions, and the reaction mixtures were incubated at 37 °C for 5 min. Afterward, the liver microsome reactions were initiated with 110 μL of 10 mM NADPH and further incubated at 37 °C for the designated time course of the study. […] Each test compound was run in tandem with positive and negative control experiments for quality assurance. Positive control reactions were conducted at a final volume of 550 μL for a single run of each time point.
For both LM and plasma stability assays, each data point was analyzed in duplicate using in-between blank washes to avoid carry over and to equilibrate the column for the subsequent runs. Averages of these duplicate for individual compounds at each time point were then normalized to the data at 0 min, representing 100% test compound remaining or 0% metabolism. Half-lives (t1/2) were calculated by plotting ln of % test compound remaining versus time and performing linear regression to determine slope.
Metabolic Stability Assays
Liver Microsome Stability
Liver Microsome Stability Assay Setup Example
Quenching Mixture: 100 µL MeOH with ISTD (2 µM d5-7-ethoxycoumarin).
Final Volume After Quenching: 200 µL (100 µL from reaction mixture + 100 µL quencher
solution; ISTD final concentration of 1.0 µM).

HEK293T cells = experiment: Cellular cytotoxicity (cell viability, CellTiter 96 or resazurin); details: HEK293T cells, 48 h, compounds formulated with HSA (5:1)
[2] = as above; details: human, CC50, HEK293T cells, compounds formulated with HSA (5:1)
[3] = tested on: HIV-1 subtype C strain MJ4; experiment: Single-cycle non-replicating HIV pseudoviral luciferase assay in HEK293T cells; details: Human immunodeficiency virus 1, HEK-293T, read-out: HIV IC50
Protocol: Second, HIV IC50 and cellular CC50 were determined with a pseudoviral, whole (HEK293T) cell, nonreplicative HIV assay, using the HIV-1 subtype C strain MJ4 (refer to Experimental Methods). To account for the unique amphiphilic properties of TXL and the novel HTP-based prodrugs, all compounds were formulated in a human serum albumin (HSA) solution (5:1 drug:protein).
Assessment of cytotoxicity and antiviral activity of all final compounds in vitro was conducted according to previously reported procedures.[39] In summary, human embryonic kidney (HEK293T) cells maintained in high glucose (25 mM), Dulbecco’s modified Eagle’s medium (DMEM) supplemented with fetal bovine serum (10%), sodium pyruvate (1 mM), L-glutamine (2 mM), HEPES (25 mM), and gentamicin (50 μg/mL) were used for determinations. The cells were maintained in an incubator at 37 °C under 5% CO2 in a humidified atmosphere. For both cytotoxicity and antiviral screening, all compounds were evaluated in duplicate in at least two independent experiments. All final compounds were formulated with human serum albumin (HSA, 5:1 compound to HSA molar ratio) and subsequently diluted with complete DMEM to 200 μM. Fifty microliters of test compound serial dilutions (3-fold) were prepared in 96-well culture plates, after which 50 μL of HEK293T cells (2 × 10^4 cells/well) was added. […] Cytotoxicity was then assessed by quantifying cell viability using the CellTiter 96 Aqueous One Solution Cell Proliferation Assay (Promega, Madison, WI) or resazurin sodium salt (cat# R7017, Merck, Darmstadt, Germany).[61] […] Antiviral activity was then assessed using a single-cycle, nonreplicating, envelope deleted HIV pseudoviral in vitro assay.[62],[63] The assay relies on the introduction of the firefly luciferase gene into HEK293T cells through infection with HIV-like viral particles, containing Reverse Transcriptase (RT) and Integrase (IN) from the HIV-1 subtype C strain MJ4.[64] The expression of the luciferase in the cells is directly proportional to the level of infection by the HIV-like viral particles and can be used to assess the inhibition of HIV-1 RT and IN. To evaluate anti-HIV activity, 3-fold serial dilutions of all final compounds were prepared in 50 μL over the noncytotoxic concentration range (as determined from the cytotoxicity screens described above) in 96-well culture plates. HEK293T cells (2 × 10^4 cells/well) and HIV-like viral particles, standardized to produce a luminescence signal of 1 × 10^6 relative light units (RLUs) in the growth medium only control, were combined, and 50 μL was added to the wells containing serially diluted test compounds. […] The expression of luciferase was subsequently quantified by adding 100 μL of the Bright-Glo Luciferase Assay substrate (Promega, Madison, WI) to each well of the 96-well plates. After incubation at rt for 3 min, luminescence was quantified on the GloMax Explorer Multimode Microplate Reader (Promega, Madison, WI).

HepaRG cells [4] = experiment: HepaRG cellular uptake; details: 20 µM
Source text: (§9) Naturally, due the metabolic complexity of HepaRG cells, we specifically analyzed prodrug cellular uptake and stability, as represented by Cmax and intrinsic clearance (Clint,u) accordingly (Figure 7 and Table 9).
(§10) The HepaRG cell line (HPRGC10, Thermo Fisher Scientific) was used to evaluate the cellular permeability and metabolic stability for select final compounds in vitro. The cells were initially thawed with working media composed of HepaRG Thaw, Plate, & General Purpose Medium Supplement (HPRG670), Williams Medium E (100 mL), and GlutaMax (1 mL), all purchased from Thermo Fisher Scientific. […] After the thawing medium was aspirated from each well, the cells were cultured for an additional 6 days with working media consisting of HepaRG Maintenance/Metabolism Medium Supplement (HPRG720), Williams Medium E (500 mL), and GlutaMax (1 mL), all purchased from Thermo Fisher Scientific. Upon completing the 7-day culture period, HepaRG cells were plated in enough wells to allow for duplicate analysis of prodrugs in two independent cellular uptake or metabolic stability experiments. All studied compounds were formulated with human serum albumin (HSA, 5:1 compound to HSA molar ratio) and subsequently diluted to a 20 μM final concentration with assay medium composed of serum-free INVITROGRO HI Medium and TORPEDO Antibiotic Mix purchased from BioIVT. For cellular uptake determinations, the maintenance/metabolism medium was first aspirated from each well, and then the plated cells were spiked with 1.0 mL of test compound stock solution. Subsequently, the plate was incubated at 37 °C under 5% CO2 environment over the desired time course (seven data points/compound). Blank wells not treated with prodrug were included in assay runs as controls and initial time points (0 min). At each time point, the test compound solution was removed from the appropriate wells, and the plated cells were washed with 1.0 mL of DPBS twice. The HepaRG cells were then extracted with 500 μL of cold ISTD solution (1 μM 7-ethoxy-d5-coumarin in 70/30 MeOH/H2O), and the quenched aliquots were centrifuged at 15,000 g for 10 min at 4 °C. […] After obtaining prodrug Cmax and Tmax values from the cellular uptake assay, HepaRG metabolic stability was then assessed. Following the initial 7-day culture procedure, the maintenance/metabolism medium was aspirated from each well, and the plated cells were spiked with 1.0 mL of test compound stock solution. […] The test compound solution was then removed from each well and replaced with untreated dilution medium (i.e., serum-free INVITROGRO HI Medium and TORPEDO Antibiotic Mix), initializing the stability determination. The HepaRG plate was once more incubated at 37 °C under 5% CO2 atmosphere over the desired time course (nine data points/compound), and sample preparation and analysis were handled in identical fashion to cellular uptake experiments.

HepaRG cellular uptake = details: human, HepaRG Cmax, 20 μM, HSA formulation 5:1, recorded after 3 h incubation
Source text: as §9, §10

HepaRG cells [5] = experiment: HepaRG cellular metabolic stability; details: for HepaRG t1/2: after 3 h loading at 20 μM, 37 °C
Source text: as §9, §10

[6] = HepaRG cellular metabolic stability; details: human, other cell line; for hepatocyte CLint at 20 μM: HepaRG Clint,u, calculated from cellular t1/2; for half-life at 20 μM: HepaRG t1/2, after 3 h loading at 20 μM, 37 °C
Source text: as §9, §10

Mouse plasma stability = format: in vitro ADME; details: male, BALB/C, mouse, plasma; 3 μM, 37 °C, 240 min course; read-out: mouse plasma t1/2
Protocol: (§1) Human plasma (lithium heparin (LiHep) mixed, gender pooled, 0.2 μm filtered) and mouse plasma (BALB/C, LiHep mixed, male pooled, 0.2 μm filtered) were purchased from BioIVT. Procaine (Sigma-Aldrich) served as a positive control for both human and mouse plasma experiments. […] Next, the human or mouse plasma (994 μL) was aliquoted into 1.5 mL Eppendorf tubes with duplicates (reactions A and B) being prepared for each compound. The plasma was then incubated at 37 °C for 10 min. […] This procedure provided duplicate experiments with a final volume of 1000 μL (<0.2% organic solvent content) and a final test compound concentration of 3 μM. Aliquots (100 μL) were removed from each reaction mixture at 0, 30, 60, 120, and 240 min time intervals and quenched with 150 μL of cold ISTD solution (2 μM 7-ethoxy-d5-coumarin in MeOH). […] The positive control reaction was conducted at a final volume of 1000 μL for a single run of each time point. Finally, the negative control experiment was conducted with test compounds in Dulbecco’s phosphate buffered saline without calcium and magnesium (DPBS, Fisher Scientific, 143 μL) and analyzed at the 240 min time point.
(§2) Plasma Stability Assay Setup Example
(§3) Test Compound: 994 µL Human or Mouse Plasma + 6.0 µL TC (500 µM, Vial A).
(§4) 994 µL Human or Mouse Plasma + 6.0 µL TC (500 µM, Vial B).
(§5) Positive Control: 994 µL Human or Mouse Plasma + 6.0 µL Procaine (500 µM).
(§6) Negative Control: 142 µL DPBS (1X, pH 7.1-7.3) + 0.9 µL TC (500 µM).
(§7) Quenching Mixture: 150 µL MeOH with ISTD (2 µM d5-7-ethoxycoumarin).
(§8) Final Volume After Quenching: 250 µL (100 µL from reaction mixture and 150 µL quencher
solution; ISTD final concentration of 1.2 µM). […]

Human plasma stability = format: in vitro ADME; details: both sexes, human, plasma; 3 μM, 37 °C, 240 min course; read-out: human plasma t1/2
Protocol: as §1, §2, §3, §4, §5, §6, §7, §8
solution; ISTD final concentration of 1.2 µM).
Human Plasma Stability of Compound 2a at 37 °C
Figure S29. In vitro human plasma stability of 2a (5 points over 240 min) with procaine serving

[7] = microsomes, HLM t1/2, HLM 1 mg/mL, 3 μM compound, NADPH, 37 °C, 120 min course

| SMILES | half-life at 3 μM [1, 7] [h] | half-life at 2.083 h, 3 µM [1, 7] [h] | CC50 at 48 h [2] [µM] | other results |
| --- | --- | --- | --- | --- |
| CCCCCCCCCCCCCCCCCSCCOP(=O)(O)CO[C@H](C)Cn1cnc2c(N)ncnc21.N [2b] | 1.1 | 1.1 ± 0.0433 | 29 | CC50 (HEK293T cells): 28.6 ± 3.7 µM |
| CCCCCCCCCCCCCSCCCCCCOP(=O)(O)CO[C@H](C)Cn1cnc2c(N)ncnc21.N [2c] | 1.1 | 1.1 ± 0.05 | > 100 | – |
| CCCCCCCCCCSCCCCCCCCCOP(=O)(O)CO[C@H](C)Cn1cnc2c(N)ncnc21.N [2d] | – | 0.222 ± 0.00833 | > 100 | – |
| CCCCCCCSCCCCCCCCCCCCOP(=O)(O)CO[C@H](C)Cn1cnc2c(N)ncnc21.N [2e] | – | 0.3433 ± 0.00167 | > 100 | – |
| CCCCSCCCCCCCCCCCCCCCOP(=O)(O)CO[C@H](C)Cn1cnc2c(N)ncnc21.N [2f] | – | 0.32833 ± 5e-05 | > 100 | – |
| CCCCCCCCCCCCSCCCOP(=O)(O)CO[C@H](C)Cn1cnc2c(N)ncnc21.N [2g] | – | 0.188 ± 0.00333 | > 100 | – |
| CCCCCCCCCCCCCCSCCCOP(=O)(O)CO[C@H](C)Cn1cnc2c(N)ncnc21.N [2h] | – | 0.26 ± 0.00167 | > 100 | – |
| C#CCCCCCCCCCCCCCCSCCCOP(=O)(O)CO[C@H](C)Cn1cnc2c(N)ncnc21 [15b] | – | – | – | half-life at 3 μM ([1]; liver microsomes): > 1.58 h; half-life at 2.083 h, 3 µM ([1]; liver microsomes): 1.6 ± 0.03 h; IC50 [3]: 0.024 to 0.028 µM |
| C[C@H](Cn1cnc2c(N)ncnc21)OCP(=O)(O)OCCCSCCCCCCCCCCCCC#C[Si](C)(C)C.N [15c] | > 1.58 | – | > 100 | HLM t1/2 ([1]; HLM 1 mg/mL, 3 μM compound, NADPH, 37 °C, 120 min course): > 2 h; remaining at 2 h, 3 μM ([1]; microsomes): 82%; IC50 [3]: 0.024 to 0.028 µM |
| CC(C)[Si](C#CCCCCCCCCCCCSCCCOP(=O)(O)CO[C@H](C)Cn1cnc2c(N)ncnc21)(C(C)C)C(C)C.N [15d] | > 2 | – | 59.3 ± 2.4 | remaining at 2 h, 3 μM ([1]; microsomes): > 95% |
| C[C@H](Cn1cnc2c(N)ncnc21)OCP(=O)(O)OCCCSCCCCCCCCCCCCC#CC(C)(C)C.N [15e] | > 2 | – | > 100 | remaining at 2 h, 3 μM ([1]; microsomes): 71%; mean prodrug concentration in HepaRG cells (HepaRG cells [4]; 0.5 h): 169.76 ng/mL; mean prodrug concentration in HepaRG cells (HepaRG cells [4]; 1 h): 211.84 ng/mL; mean prodrug concentration in HepaRG cells (HepaRG cells [4]; 2 h): 233.02 ng/mL; mean prodrug concentration in HepaRG cells (HepaRG cells [4]; 3 h): 241.98 ng/mL; mean prodrug concentration in HepaRG cells (HepaRG cells [4]; 4 h): 281.89 ng/mL; mean prodrug concentration in HepaRG cells (HepaRG cells [4]; 6 h): 321.96 ng/mL; Cmax at 3 h, 20 μM (HepaRG cellular uptake): 242 ± 5.5 ng/mL; HepaRG t1/2 (HepaRG cells [5]): 1.11 ± 0.0833 h; HepaRG Clint,u (HepaRG cells [5]; calculated from cellular t1/2): 18.9 μL/min/million cells; hepatocyte CLint at 20 μM [6]: 18 to 19 µL/min/1e6 cells; half-life at 20 μM [6]: 1.12 to 1.18 h; IC50 [3]: 0.196 µM |
| C[C@H](Cn1cnc2c(N)ncnc21)OCP(=O)(O)OCCCSCCCCCCCCCCC#Cc1ccccc1.N [15f] | 1.18 | 1.19 ± 0.0183 | > 100 | – |
| C[C@H](Cn1cnc2c(N)ncnc21)OCP(=O)(O)OCCCSCCCCCCCCCCC#Cc1ccc(F)cc1.N [15g] | > 2 | – | > 100 | remaining at 2 h, 3 μM ([1]; microsomes): 67% |
| C[C@H](Cn1cnc2c(N)ncnc21)OCP(=O)(O)OCCCSCCCCCCCCCCC#CC1CCCCC1.N [15h] | > 2 | – | > 100 | remaining at 2 h, 3 μM ([1]; microsomes): 67%; HLM % remaining [1]: 70% |
| C[C@H](Cn1cnc2c(N)ncnc21)OCP(=O)(O)OCCCSCCCCCCCCCCCCCCC(C)(C)C.N [16e] | > 2 | – | 24 ± 1.4 | remaining at 2 h, 3 μM ([1]; microsomes): 95%; HLM % remaining [1]: > 95%; mean prodrug concentration in HepaRG cells (HepaRG cells [4]; 0.5 h): 625.22 ng/mL; mean prodrug concentration in HepaRG cells (HepaRG cells [4]; 1 h): 984.12 ng/mL; mean prodrug concentration in HepaRG cells (HepaRG cells [4]; 3 h): 1100.03 ng/mL; mean prodrug concentration in HepaRG cells (HepaRG cells [4]; 4 h): 1000.18 ng/mL; mean prodrug concentration in HepaRG cells (HepaRG cells [4]; 6 h): 1196.77 ng/mL; Cmax at 3 h, 20 μM (HepaRG cellular uptake): 1100 ± 63.6 ng/mL; HepaRG t1/2 (HepaRG cells [5]): 2.052 ± 0.05 h; hepatocyte CLint at 20 μM [6]: 10.2 µL/min/1e6 cells; half-life at 20 μM [6]: 2.05 h; IC50 [3]: 0.177 µM |
| C[C@H](Cn1cnc2c(N)ncnc21)OCP(=O)(O)OCCCSCCCCCCCCCCCCc1ccccc1.N [16f] | 1.13 | 1.14 ± 0.00167 | > 100 | – |
| C[C@H](Cn1cnc2c(N)ncnc21)OCP(=O)(O)OCCCSCCCCCCCCCCCOc1ccccc1.N [23a] | 0.133 | 0.14 ± 0.00167 | > 100 | – |
| C[C@H](Cn1cnc2c(N)ncnc21)OCP(=O)(O)OCCCSCCCCCCCCCCCSc1ccccc1.N [23b] | – | 0.132 ± 0.00333 | > 100 | – |
| C[C@H](Cn1cnc2c(N)ncnc21)OCP(=O)(O)OCCCSCCCCCCCCCCCOc1ccc(F)cc1.N [23c] | 0.8 to 0.833 | 0.82833 ± 0.0005 | > 100 | – |
| C[C@H](Cn1cnc2c(N)ncnc21)OCP(=O)(O)OCCCSCCCCCCCCCCCOC1CCCCC1.N [23d] | 0.8 to 0.833 | 0.7983 ± 0.00667 | > 100 | – |
| COC(=O)CCCCCCCCCCCCCCCSCCCOP(=O)(O)CO[C@H](C)Cn1cnc2c(N)ncnc21.N [23e] | – | 0.0917 ± 0.005 | > 100 | – |
| CCN(CC)CCOC(=O)c1ccc(N)cc1 [Procaine, reference compound] | – | – | – | half-life at 3 μM (Mouse plasma stability): 42 s; half-life at 3 μM (Human plasma stability): 24 s |
